The Biogen ADME set (Fang et al. 2023)
In brackets after ≈: the same amount, converted by molar mass.

Settings: for aqueous solubility: pH 6.8

N#CCCN(C(=O)c1sccc1C#N)C12CC3CC(CC(C3)C1)C2
MDR1-MDCK efflux ratio: 1.16
intrinsic clearance, human liver microsomes: 320 mL/min/kg
intrinsic clearance, rat liver microsomes: 1600 mL/min/kg
aqueous solubility: 7.8 µg/mL (≈ 23 µM)

Cc1nc(-c2cccc(-c3ccc(C(=O)NC[C@@H]4CCCN4)cc3)c2)no1
MDR1-MDCK efflux ratio: 113
intrinsic clearance, human liver microsomes: ≤ 4.74 mL/min/kg
intrinsic clearance, rat liver microsomes: 30.1 mL/min/kg

Fc1ccc(-c2cc(C3CCNCC3)ccn2)cc1
intrinsic clearance, human liver microsomes: ≤ 4.74 mL/min/kg
intrinsic clearance, rat liver microsomes: ≤ 10.7 mL/min/kg
aqueous solubility: 41 µg/mL (≈ 160 µM)

CC(=O)NCC1CCN(C(=O)c2ccc(C)nc2)CC1
MDR1-MDCK efflux ratio: 130
intrinsic clearance, human liver microsomes: ≤ 4.74 mL/min/kg
intrinsic clearance, rat liver microsomes: ≤ 10.7 mL/min/kg
aqueous solubility: 54 µg/mL (≈ 196 µM)

Cc1ccc(=O)n(CC2(O)CCN(Cc3cccs3)CC2)n1
MDR1-MDCK efflux ratio: 4.22
intrinsic clearance, human liver microsomes: ≤ 4.74 mL/min/kg
intrinsic clearance, rat liver microsomes: 161 mL/min/kg

Cc1nnc(CN(C)Cc2cnn(C)c2C)s1
MDR1-MDCK efflux ratio: 1.44
intrinsic clearance, human liver microsomes: ≤ 4.74 mL/min/kg
intrinsic clearance, rat liver microsomes: 20 mL/min/kg

CCOc1cccc(C(=O)Nc2ccc3c(c2)CCC(=O)N3C)c1
intrinsic clearance, human liver microsomes: 12.2 mL/min/kg
intrinsic clearance, rat liver microsomes: 53.6 mL/min/kg
aqueous solubility: 9.14 µg/mL (≈ 28.2 µM)

N#CC1(NC(=O)c2ccc3c(c2)OCO3)CCCC1
intrinsic clearance, human liver microsomes: ≤ 4.74 mL/min/kg
intrinsic clearance, rat liver microsomes: 64.9 mL/min/kg

COc1ccc(-c2ccccc2)c(NS(=O)(=O)c2cc(O)c(Cl)cc2Cl)c1
aqueous solubility: 27.6 µg/mL (≈ 65 µM)

O=C(Cn1ncc2ccccc21)Nc1ccc2c(c1)CCO2
intrinsic clearance, human liver microsomes: 13.7 mL/min/kg
intrinsic clearance, rat liver microsomes: 210 mL/min/kg

Cc1ccc(-c2nc(-c3ccncc3)n[nH]2)cc1
intrinsic clearance, human liver microsomes: 26.9 mL/min/kg
intrinsic clearance, rat liver microsomes: 269 mL/min/kg
aqueous solubility: 20 µg/mL (≈ 84.7 µM)

Cc1cc(C(=O)Nc2nnc3n2CCCC3)n(C)n1
MDR1-MDCK efflux ratio: 1.44
intrinsic clearance, human liver microsomes: ≤ 4.74 mL/min/kg
intrinsic clearance, rat liver microsomes: 11.4 mL/min/kg

C[C@@H](CO)Nc1nc(C(F)(F)F)nc2[nH]cnc12
MDR1-MDCK efflux ratio: 6.72
intrinsic clearance, human liver microsomes: ≤ 4.74 mL/min/kg
intrinsic clearance, rat liver microsomes: ≤ 10.7 mL/min/kg
aqueous solubility: 40 µg/mL (≈ 153 µM)

Cc1ccc(C(N)=O)c(OCc2c(Cl)ccc3cccnc23)c1
MDR1-MDCK efflux ratio: 0.372
aqueous solubility: 0.61 µg/mL (≈ 1.87 µM)

CC#CC(=O)N1CCC[C@@H]1c1nc(-c2ccc(C(=O)Nc3ccccn3)cc2)c2c(N)nccn12
MDR1-MDCK efflux ratio: 37.1
fraction unbound, human plasma: 0.0946
intrinsic clearance, human liver microsomes: 73.9 mL/min/kg
intrinsic clearance, rat liver microsomes: 275 mL/min/kg

O=C(c1ccccc1-n1cccn1)N1CCN(Cc2cccnc2)CC1
MDR1-MDCK efflux ratio: 19.3
intrinsic clearance, human liver microsomes: 56 mL/min/kg
intrinsic clearance, rat liver microsomes: 605 mL/min/kg
aqueous solubility: 54.4 µg/mL (≈ 157 µM)

CCN1CCC(Nc2nc(C)cc(C)c2C#N)CC1
MDR1-MDCK efflux ratio: 1.24
intrinsic clearance, human liver microsomes: 6.73 mL/min/kg
intrinsic clearance, rat liver microsomes: 2490 mL/min/kg
aqueous solubility: 43.4 µg/mL (≈ 168 µM)

COc1cccc(-c2cccc(N)n2)c1F
MDR1-MDCK efflux ratio: 0.764
intrinsic clearance, human liver microsomes: 84.1 mL/min/kg
intrinsic clearance, rat liver microsomes: 258 mL/min/kg
aqueous solubility: 18.2 µg/mL (≈ 83.4 µM)

Cc1noc(C)c1C(=O)N1CCCN(c2ccc(F)cc2)CC1
MDR1-MDCK efflux ratio: 1.8
intrinsic clearance, human liver microsomes: 111 mL/min/kg
intrinsic clearance, rat liver microsomes: 566 mL/min/kg
aqueous solubility: 55.6 µg/mL (≈ 175 µM)

Cc1nc(C)c(C(=O)NCc2ncoc2C)s1
intrinsic clearance, human liver microsomes: ≤ 4.74 mL/min/kg
intrinsic clearance, rat liver microsomes: ≤ 10.7 mL/min/kg

Cc1ccc(-c2ccc(N(C)CCO)nn2)c(-n2cccn2)c1
MDR1-MDCK efflux ratio: 29.3
intrinsic clearance, human liver microsomes: ≤ 4.74 mL/min/kg
intrinsic clearance, rat liver microsomes: 79.8 mL/min/kg

Cc1nc(-c2ccncc2)cc(N2CCC(CO)CC2)n1
intrinsic clearance, human liver microsomes: ≤ 4.74 mL/min/kg
intrinsic clearance, rat liver microsomes: 36.9 mL/min/kg

Cc1ccc(C(=O)NCCc2csc(C)n2)cn1
MDR1-MDCK efflux ratio: 0.918
intrinsic clearance, human liver microsomes: 7.45 mL/min/kg
intrinsic clearance, rat liver microsomes: 11.3 mL/min/kg
aqueous solubility: 40.4 µg/mL (≈ 155 µM)

CCc1cc2c(N3CCN(Cc4nccn4C)CC3)ncnc2s1
aqueous solubility: 66.8 µg/mL (≈ 195 µM)

Cc1ccc(C(=O)N2CCC(Cc3ccccc3-c3ccccc3)(C(=O)N(C)C)CC2)s1
MDR1-MDCK efflux ratio: 1.12
fraction unbound, human plasma: 0.00509
fraction unbound, rat plasma: 0.00257
intrinsic clearance, human liver microsomes: 768 mL/min/kg
intrinsic clearance, rat liver microsomes: 1520 mL/min/kg
aqueous solubility: 23.8 µg/mL (≈ 53.3 µM)

NC(=O)Cn1nnc(-c2ccccc2)n1
aqueous solubility: 11 µg/mL (≈ 54.1 µM)

CONC(=O)c1cn(-c2ccc(Br)cc2)cn1
intrinsic clearance, human liver microsomes: ≤ 4.74 mL/min/kg
intrinsic clearance, rat liver microsomes: 463 mL/min/kg
aqueous solubility: 63.6 µg/mL (≈ 215 µM)

Cc1nc(COc2ccc(F)cc2)sc1C(=O)N1CCC(C)CC1
MDR1-MDCK efflux ratio: 0.543
intrinsic clearance, human liver microsomes: 90.2 mL/min/kg
intrinsic clearance, rat liver microsomes: 2510 mL/min/kg
aqueous solubility: 47.4 µg/mL (≈ 136 µM)

O=C(Nc1nc(-c2cccnc2)cs1)C1CCCCC1
MDR1-MDCK efflux ratio: 0.497
aqueous solubility: 0.21 µg/mL (≈ 0.731 µM)

CCc1noc(C2CCC(NCC3CCC(F)(F)CC3)CC2)n1 (stereo not given)
MDR1-MDCK efflux ratio: 2.98
intrinsic clearance, human liver microsomes: 54.4 mL/min/kg
intrinsic clearance, rat liver microsomes: 240 mL/min/kg
aqueous solubility: 75.9 µg/mL (≈ 232 µM)

Clc1ccc(CSc2nc(-c3ccccc3)cs2)cn1
intrinsic clearance, human liver microsomes: 221 mL/min/kg
intrinsic clearance, rat liver microsomes: 2260 mL/min/kg

COc1cc([C@@H]2c3cc4c(cc3[C@H](O)[C@H]3COC(=O)[C@@H]23)OCO4)cc(OC)c1OC
MDR1-MDCK efflux ratio: 0.444
intrinsic clearance, human liver microsomes: 44.5 mL/min/kg
intrinsic clearance, rat liver microsomes: 5860 mL/min/kg

Cc1c(O)cccc1OCCN1CCOCC1
intrinsic clearance, human liver microsomes: ≤ 4.74 mL/min/kg
intrinsic clearance, rat liver microsomes: 53.7 mL/min/kg

CCCc1cc(C)nc(O)c1CNC(=O)c1cc(-c2ccc(N3CCN(C(C)C)CC3)nc2)cc2c1cnn2C(C)C
MDR1-MDCK efflux ratio: 122
intrinsic clearance, human liver microsomes: 120 mL/min/kg
intrinsic clearance, rat liver microsomes: 235 mL/min/kg

N#Cc1c(N)nc(SCC(N)=O)c(C#N)c1-c1ccc(OCC2CC2)cc1
MDR1-MDCK efflux ratio: 42.5
aqueous solubility: 0.52 µg/mL (≈ 1.37 µM)

CCC(=O)NCC[C@@H]1CCc2ccc3c(c21)CCO3
MDR1-MDCK efflux ratio: 0.867
intrinsic clearance, human liver microsomes: 26.4 mL/min/kg
intrinsic clearance, rat liver microsomes: 299 mL/min/kg

Nc1nc(CN2CCN(c3ccc(F)cc3)CC2)cs1
MDR1-MDCK efflux ratio: 0.597
intrinsic clearance, human liver microsomes: ≤ 4.74 mL/min/kg
intrinsic clearance, rat liver microsomes: 49.7 mL/min/kg
aqueous solubility: 57 µg/mL (≈ 195 µM)

c1cc(-c2nnc(NCc3cncs3)o2)ccn1
MDR1-MDCK efflux ratio: 1.9
intrinsic clearance, human liver microsomes: ≤ 4.74 mL/min/kg
intrinsic clearance, rat liver microsomes: 91.4 mL/min/kg

Cc1noc(C2CCN(CC(N)=O)CC2)n1
intrinsic clearance, human liver microsomes: 9.99 mL/min/kg
intrinsic clearance, rat liver microsomes: 29.7 mL/min/kg
aqueous solubility: 30.8 µg/mL (≈ 137 µM)

Cc1nc(CN2CCC(CNC(=O)COc3ccccc3Cl)CC2)c[nH]1
MDR1-MDCK efflux ratio: 5.32
intrinsic clearance, human liver microsomes: ≤ 4.74 mL/min/kg
intrinsic clearance, rat liver microsomes: 58.1 mL/min/kg

O=C(Nc1ccn(CC(F)F)n1)NC1CCN(C2CCCC2)CC1
MDR1-MDCK efflux ratio: 34.7
intrinsic clearance, human liver microsomes: ≤ 4.74 mL/min/kg
intrinsic clearance, rat liver microsomes: ≤ 10.7 mL/min/kg

COc1c(C)cnc(Cn2cc(C#CCC(C)(C)O)c3c(Cl)nc(N)nc32)c1C
intrinsic clearance, human liver microsomes: 58.2 mL/min/kg
intrinsic clearance, rat liver microsomes: 145 mL/min/kg

CC(C)c1cccc(CN2C(=O)N(C)C3(CCCCC3)C2=O)n1
MDR1-MDCK efflux ratio: 1.13
intrinsic clearance, human liver microsomes: 826 mL/min/kg
intrinsic clearance, rat liver microsomes: 4200 mL/min/kg
aqueous solubility: 35 µg/mL (≈ 111 µM)

O=C(Nc1ccccc1)Nc1ccc(-c2ccc(C(=O)[C@H]3CCC[C@@H]3C(=O)O)cc2)cc1
MDR1-MDCK efflux ratio: 5.96
intrinsic clearance, human liver microsomes: 11.3 mL/min/kg
intrinsic clearance, rat liver microsomes: 23.8 mL/min/kg

COCCc1nc(-c2ccccc2-c2ccccc2)n(CCO)n1
MDR1-MDCK efflux ratio: 15.9
intrinsic clearance, human liver microsomes: 24.5 mL/min/kg
intrinsic clearance, rat liver microsomes: 182 mL/min/kg
aqueous solubility: 26.4 µg/mL (≈ 81.6 µM)

Cc1cc(C)nc(NCc2cnc(C)c(C)c2)n1
MDR1-MDCK efflux ratio: 0.622
intrinsic clearance, human liver microsomes: 12.5 mL/min/kg
intrinsic clearance, rat liver microsomes: 162 mL/min/kg
aqueous solubility: 13.3 µg/mL (≈ 54.9 µM)

CC1CCN(C(=O)c2n[nH]c3ccccc23)CC1
MDR1-MDCK efflux ratio: 0.561
intrinsic clearance, human liver microsomes: 21.4 mL/min/kg
intrinsic clearance, rat liver microsomes: 916 mL/min/kg
aqueous solubility: 26.4 µg/mL (≈ 109 µM)

N#Cc1ccccc1OCc1csc(-c2ncccn2)n1
MDR1-MDCK efflux ratio: 0.59
intrinsic clearance, human liver microsomes: 31.1 mL/min/kg
intrinsic clearance, rat liver microsomes: 119 mL/min/kg
aqueous solubility: 12.7 µg/mL (≈ 43.1 µM)

Cc1cccc2cc(C(=O)NCCSc3nccn3C)n(C)c12
intrinsic clearance, human liver microsomes: 180 mL/min/kg
intrinsic clearance, rat liver microsomes: 727 mL/min/kg
aqueous solubility: 33.5 µg/mL (≈ 102 µM)

COc1ccc2nc(C(=O)Nc3cnc4c(cnn4C(C)C)c3)ccc2c1
MDR1-MDCK efflux ratio: 0.464
aqueous solubility: 0.15 µg/mL (≈ 0.415 µM)

Cc1noc(C)c1N(C)CCn1cncn1
intrinsic clearance, human liver microsomes: ≤ 4.74 mL/min/kg
intrinsic clearance, rat liver microsomes: 38.4 mL/min/kg

O=C(c1cnc(-c2ccccc2)s1)N1CCOC2(CCCC2)C1
MDR1-MDCK efflux ratio: 0.58
intrinsic clearance, human liver microsomes: 21.4 mL/min/kg
intrinsic clearance, rat liver microsomes: 774 mL/min/kg
aqueous solubility: 39 µg/mL (≈ 119 µM)

Cc1ncsc1C(=O)N1CCCCC1c1nc(N)ncc1-c1cccc(C(F)(F)F)c1 (stereo not given)
MDR1-MDCK efflux ratio: 9.17
fraction unbound, human plasma: 0.0412
fraction unbound, rat plasma: 0.0729
intrinsic clearance, human liver microsomes: 373 mL/min/kg
intrinsic clearance, rat liver microsomes: 578 mL/min/kg
aqueous solubility: 14.3 µg/mL (≈ 32 µM)

COC(=O)[C@]12CCC(C)(C)CC1C1C(=O)C=C3[C@@]4(C)C=C(C#N)C(=O)C(C)(C)[C@@H]4CC[C@@]3(C)[C@]1(C)CC2 (stereo not given in full)
intrinsic clearance, human liver microsomes: 93.5 mL/min/kg
intrinsic clearance, rat liver microsomes: 323 mL/min/kg
aqueous solubility: 3.15 µg/mL (≈ 6.23 µM)

COc1ccccc1C(=O)CSc1nncn1C1CC1
MDR1-MDCK efflux ratio: 1.3
intrinsic clearance, human liver microsomes: 24.6 mL/min/kg
intrinsic clearance, rat liver microsomes: 463 mL/min/kg

CC#CC(=O)N1CC[C@@H](n2cc(-c3ccc(Oc4c(F)cccc4F)cc3)c3c(N)n[nH]c(=O)c32)C1
MDR1-MDCK efflux ratio: 50.2
fraction unbound, human plasma: 0.00845
fraction unbound, rat plasma: 0.00935
intrinsic clearance, human liver microsomes: 41.7 mL/min/kg
intrinsic clearance, rat liver microsomes: 519 mL/min/kg
aqueous solubility: 2.7 µg/mL (≈ 5.52 µM)

Cn1cc(CCNC(=O)N2CCc3sccc3C2)cn1
MDR1-MDCK efflux ratio: 1.51
intrinsic clearance, human liver microsomes: 15 mL/min/kg
intrinsic clearance, rat liver microsomes: 68.4 mL/min/kg
aqueous solubility: 40 µg/mL (≈ 138 µM)

CCOC(=O)C1(Cc2cc(-c3cccc(F)c3)no2)CCN(Cc2ccccc2O)CC1
aqueous solubility: 0.68 µg/mL (≈ 1.55 µM)

O=C(CN1CCSC1=O)N1CCN(Cc2sc3ccccc3c2Cl)CC1
intrinsic clearance, human liver microsomes: 72.7 mL/min/kg
intrinsic clearance, rat liver microsomes: 349 mL/min/kg
aqueous solubility: 54.4 µg/mL (≈ 133 µM)
